# Reference: publication PMC5564600 (Oncotarget, 2017)
# Where two headings read alike, the source gives them in different places.
# How the values were obtained:
# Assay in all cases: biochemical
# Assay type in all cases: binding
# panel of 442 kinases [1] = biological target: T1, panel of 442 kinases (Homo sapiens, UniProt Q15349)
# T1 construct: purchased Ambit Biosciences (scanMAXX KINOMEscan)
# panel of 442 kinases [2] = biological target: T2, panel of 442 kinases (Homo sapiens, UniProt Q9UL54); conditions: kinase TAOK2; for remaining activity at 1 µM: read-out: TAOK2 (% of control at 1 µM)
# T2 construct: purchased Ambit Biosciences (scanMAXX KINOMEscan)
# T2 sequence (Q9UL54 1-1235): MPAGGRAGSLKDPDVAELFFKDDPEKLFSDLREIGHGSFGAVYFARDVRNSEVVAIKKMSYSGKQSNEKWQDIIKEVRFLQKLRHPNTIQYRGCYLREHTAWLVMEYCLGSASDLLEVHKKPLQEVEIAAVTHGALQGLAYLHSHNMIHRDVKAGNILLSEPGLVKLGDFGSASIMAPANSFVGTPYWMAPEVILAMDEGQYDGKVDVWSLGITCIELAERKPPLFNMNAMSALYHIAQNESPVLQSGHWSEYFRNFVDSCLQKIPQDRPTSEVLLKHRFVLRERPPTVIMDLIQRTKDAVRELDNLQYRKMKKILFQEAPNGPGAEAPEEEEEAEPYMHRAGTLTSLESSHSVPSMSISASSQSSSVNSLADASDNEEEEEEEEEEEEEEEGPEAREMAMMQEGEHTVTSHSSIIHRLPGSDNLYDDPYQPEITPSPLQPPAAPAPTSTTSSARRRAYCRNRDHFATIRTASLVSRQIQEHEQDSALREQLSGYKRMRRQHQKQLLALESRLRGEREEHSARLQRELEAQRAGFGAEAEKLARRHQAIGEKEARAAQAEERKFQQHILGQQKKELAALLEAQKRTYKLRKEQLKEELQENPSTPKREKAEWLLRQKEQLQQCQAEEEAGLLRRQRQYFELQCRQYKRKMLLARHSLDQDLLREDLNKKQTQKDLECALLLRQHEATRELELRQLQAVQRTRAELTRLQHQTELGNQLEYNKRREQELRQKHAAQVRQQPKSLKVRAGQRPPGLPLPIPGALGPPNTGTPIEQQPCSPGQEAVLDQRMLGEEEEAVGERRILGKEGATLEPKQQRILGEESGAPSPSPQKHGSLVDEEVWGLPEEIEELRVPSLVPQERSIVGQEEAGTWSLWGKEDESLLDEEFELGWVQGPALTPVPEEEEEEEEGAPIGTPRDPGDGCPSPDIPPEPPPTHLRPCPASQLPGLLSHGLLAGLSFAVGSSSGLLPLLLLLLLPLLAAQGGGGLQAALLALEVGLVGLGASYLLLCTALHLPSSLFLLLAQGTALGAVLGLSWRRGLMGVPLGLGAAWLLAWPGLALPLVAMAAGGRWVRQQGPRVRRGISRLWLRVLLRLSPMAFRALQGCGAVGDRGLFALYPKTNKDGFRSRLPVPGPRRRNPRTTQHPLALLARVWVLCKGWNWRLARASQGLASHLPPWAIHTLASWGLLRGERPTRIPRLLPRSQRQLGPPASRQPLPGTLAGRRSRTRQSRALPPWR
# panel of 442 kinases [3] = biological target: T3, panel of 442 kinases (Homo sapiens, UniProt P48730); conditions: CSNK1D; for remaining activity at 1 µM: read-out: % of control at 1 µM
# T3 construct: purchased Ambit Biosciences (scanMAXX KINOMEscan)
# panel of 442 kinases [4] = biological target: T4, panel of 442 kinases (Homo sapiens, UniProt P00533, L858R); conditions: EGFR(L858R); for remaining activity at 1 µM: read-out: % of control at 1 µM
# T4 construct: purchased Ambit Biosciences (scanMAXX KINOMEscan)
# panel of 442 kinases [5] = biological target: T5, panel of 442 kinases (Homo sapiens, UniProt P11309); conditions: kinase PIM1; for remaining activity at 1 µM: read-out: % of control at 1 µM
# T5 construct: purchased Ambit Biosciences (scanMAXX KINOMEscan)
# panel of 442 kinases [6] = biological target: T6, panel of 442 kinases (Homo sapiens, UniProt P00519, M351T); conditions: ABL1(M351T)-phosphorylated; for remaining activity at 1 µM: read-out: % of control at 1 µM
# T6 construct: purchased Ambit Biosciences (scanMAXX KINOMEscan)
# panel of 442 kinases [7] = biological target: T7, panel of 442 kinases (Homo sapiens, UniProt P52333); conditions: kinase JAK3(JH1domain-catalytic); for remaining activity at 1 µM: read-out: % of control at 1 µM
# T7 construct: purchased Ambit Biosciences (scanMAXX KINOMEscan)
# T7 sequence (P52333 1-1124): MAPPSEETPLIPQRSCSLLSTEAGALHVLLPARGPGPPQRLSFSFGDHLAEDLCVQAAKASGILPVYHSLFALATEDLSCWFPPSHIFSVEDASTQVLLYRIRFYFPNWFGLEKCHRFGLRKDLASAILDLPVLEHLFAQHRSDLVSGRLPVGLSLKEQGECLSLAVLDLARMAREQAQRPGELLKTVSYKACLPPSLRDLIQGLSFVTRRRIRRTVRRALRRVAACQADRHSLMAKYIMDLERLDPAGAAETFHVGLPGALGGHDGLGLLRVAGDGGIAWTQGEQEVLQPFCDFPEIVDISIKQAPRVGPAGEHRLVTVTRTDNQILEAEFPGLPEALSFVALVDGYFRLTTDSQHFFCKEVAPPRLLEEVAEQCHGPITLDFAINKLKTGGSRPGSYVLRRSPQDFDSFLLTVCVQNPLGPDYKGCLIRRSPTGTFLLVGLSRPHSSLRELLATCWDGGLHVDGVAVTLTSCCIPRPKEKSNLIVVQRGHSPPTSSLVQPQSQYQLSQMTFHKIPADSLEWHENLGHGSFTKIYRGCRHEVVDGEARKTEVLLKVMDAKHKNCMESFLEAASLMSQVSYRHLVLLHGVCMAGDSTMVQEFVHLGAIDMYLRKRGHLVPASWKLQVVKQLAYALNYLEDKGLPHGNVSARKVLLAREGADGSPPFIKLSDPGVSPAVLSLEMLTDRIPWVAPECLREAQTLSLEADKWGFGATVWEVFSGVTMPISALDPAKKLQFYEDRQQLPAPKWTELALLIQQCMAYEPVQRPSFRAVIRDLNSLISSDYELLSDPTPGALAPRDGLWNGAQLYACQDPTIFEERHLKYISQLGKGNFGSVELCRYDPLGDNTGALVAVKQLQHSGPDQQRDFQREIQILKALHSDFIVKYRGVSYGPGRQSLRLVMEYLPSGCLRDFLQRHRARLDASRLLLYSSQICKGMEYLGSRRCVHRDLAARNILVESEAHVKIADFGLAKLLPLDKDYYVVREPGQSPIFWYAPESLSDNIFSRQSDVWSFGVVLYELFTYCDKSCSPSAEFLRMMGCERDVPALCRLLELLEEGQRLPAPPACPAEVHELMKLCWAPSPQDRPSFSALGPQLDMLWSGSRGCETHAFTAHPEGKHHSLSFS
# [8] = kinase RSK3(Kin.Dom.1-N-terminal), read-out: RSK3(Kin.Dom.1-N-terminal) (% of control at 1 µM)
# [9] = kinase RSK3(Kin.Dom.2-C-terminal), read-out: RSK3(Kin.Dom.2-C-terminal) (% of control at 1 µM)
# [10] = 10 µM, read-out: % of control at 10 µM
# T3 sequence (P48730 whole entry): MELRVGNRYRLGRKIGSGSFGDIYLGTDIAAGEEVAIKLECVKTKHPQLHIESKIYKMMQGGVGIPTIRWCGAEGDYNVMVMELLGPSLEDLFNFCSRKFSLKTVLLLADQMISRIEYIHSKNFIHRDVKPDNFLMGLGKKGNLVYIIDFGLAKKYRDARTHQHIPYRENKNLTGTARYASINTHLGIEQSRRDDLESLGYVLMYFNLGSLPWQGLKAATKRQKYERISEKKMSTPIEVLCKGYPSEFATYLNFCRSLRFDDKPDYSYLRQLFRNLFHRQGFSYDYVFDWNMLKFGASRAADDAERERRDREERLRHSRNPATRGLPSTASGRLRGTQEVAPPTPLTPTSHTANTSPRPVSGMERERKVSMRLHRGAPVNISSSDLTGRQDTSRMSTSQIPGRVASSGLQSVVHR
# T5 sequence (P11309 whole entry): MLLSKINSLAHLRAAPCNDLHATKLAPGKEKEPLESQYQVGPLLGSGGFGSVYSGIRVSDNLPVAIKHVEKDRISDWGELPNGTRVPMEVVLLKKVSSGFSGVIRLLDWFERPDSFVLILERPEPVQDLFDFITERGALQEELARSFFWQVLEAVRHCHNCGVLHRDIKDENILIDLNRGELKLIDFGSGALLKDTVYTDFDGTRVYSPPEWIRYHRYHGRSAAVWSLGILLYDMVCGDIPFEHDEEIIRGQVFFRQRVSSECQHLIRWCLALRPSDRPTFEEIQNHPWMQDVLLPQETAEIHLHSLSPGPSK
# T1 sequence (Q15349 whole entry): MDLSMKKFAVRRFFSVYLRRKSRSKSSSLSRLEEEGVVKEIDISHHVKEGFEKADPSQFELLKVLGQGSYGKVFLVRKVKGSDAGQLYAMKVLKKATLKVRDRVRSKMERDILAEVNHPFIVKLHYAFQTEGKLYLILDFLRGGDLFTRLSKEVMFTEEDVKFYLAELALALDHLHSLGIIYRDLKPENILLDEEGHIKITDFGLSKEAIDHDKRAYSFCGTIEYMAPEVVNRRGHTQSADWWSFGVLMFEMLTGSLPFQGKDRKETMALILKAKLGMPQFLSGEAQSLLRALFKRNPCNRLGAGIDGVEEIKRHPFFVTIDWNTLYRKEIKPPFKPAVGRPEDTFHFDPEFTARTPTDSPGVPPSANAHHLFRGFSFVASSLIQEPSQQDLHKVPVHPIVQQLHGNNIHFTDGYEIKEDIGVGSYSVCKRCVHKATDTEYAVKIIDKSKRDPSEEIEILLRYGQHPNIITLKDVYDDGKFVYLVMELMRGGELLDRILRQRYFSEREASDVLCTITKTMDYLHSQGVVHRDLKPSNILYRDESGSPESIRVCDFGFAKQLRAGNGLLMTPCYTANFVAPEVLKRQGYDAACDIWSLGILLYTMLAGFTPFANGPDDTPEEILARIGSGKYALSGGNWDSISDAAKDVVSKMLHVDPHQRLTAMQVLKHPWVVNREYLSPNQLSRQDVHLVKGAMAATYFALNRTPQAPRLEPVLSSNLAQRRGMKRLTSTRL
# T4 sequence (P00533 25-1210 L858R): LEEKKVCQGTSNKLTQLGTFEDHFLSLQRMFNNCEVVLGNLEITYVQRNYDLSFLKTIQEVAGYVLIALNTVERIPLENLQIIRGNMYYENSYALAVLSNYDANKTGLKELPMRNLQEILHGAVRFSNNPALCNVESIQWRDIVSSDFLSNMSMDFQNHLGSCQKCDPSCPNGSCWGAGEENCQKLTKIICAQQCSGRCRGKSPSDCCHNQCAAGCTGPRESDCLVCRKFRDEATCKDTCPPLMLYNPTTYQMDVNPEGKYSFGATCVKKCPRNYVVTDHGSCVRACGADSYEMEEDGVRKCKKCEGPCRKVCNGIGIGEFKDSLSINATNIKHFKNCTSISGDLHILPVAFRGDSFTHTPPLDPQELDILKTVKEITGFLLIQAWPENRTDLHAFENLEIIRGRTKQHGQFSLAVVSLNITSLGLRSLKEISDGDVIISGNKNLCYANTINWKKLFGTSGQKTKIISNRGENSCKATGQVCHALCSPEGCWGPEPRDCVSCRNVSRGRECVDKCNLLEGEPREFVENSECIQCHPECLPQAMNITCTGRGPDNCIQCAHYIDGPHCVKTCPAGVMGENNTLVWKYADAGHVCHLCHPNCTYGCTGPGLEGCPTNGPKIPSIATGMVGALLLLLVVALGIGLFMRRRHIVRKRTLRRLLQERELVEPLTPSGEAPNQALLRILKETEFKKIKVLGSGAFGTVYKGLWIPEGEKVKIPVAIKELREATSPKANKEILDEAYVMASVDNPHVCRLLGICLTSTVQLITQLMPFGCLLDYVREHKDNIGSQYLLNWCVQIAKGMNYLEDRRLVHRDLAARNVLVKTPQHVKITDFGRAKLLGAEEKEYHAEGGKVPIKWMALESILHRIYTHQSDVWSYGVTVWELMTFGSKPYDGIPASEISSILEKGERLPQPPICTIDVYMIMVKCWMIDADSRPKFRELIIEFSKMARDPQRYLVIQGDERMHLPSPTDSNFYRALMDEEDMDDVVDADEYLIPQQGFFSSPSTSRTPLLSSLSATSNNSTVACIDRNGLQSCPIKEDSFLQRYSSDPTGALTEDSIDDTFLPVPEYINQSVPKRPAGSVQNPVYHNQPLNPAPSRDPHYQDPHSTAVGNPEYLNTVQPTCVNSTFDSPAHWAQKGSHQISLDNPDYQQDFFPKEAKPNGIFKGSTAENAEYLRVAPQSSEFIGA
Compound,remaining activity at 1 µM (panel of 442 kinases [1]; [8]) [%],"remaining activity at 10 µM (panel of 442 kinases [1]; kinase RSK3(Kin.Dom.1-N-terminal), read-out: RSK3(Kin.Dom.1-N-terminal) (% of control at 10 µM)) [%]",remaining activity at 1 µM (panel of 442 kinases [1]; [9]) [%],"remaining activity at 10 µM (panel of 442 kinases [1]; kinase RSK3(Kin.Dom.2-C-terminal), read-out: RSK3(Kin.Dom.2-C-terminal) (% of control at 10 µM)) [%]",remaining activity at 1 µM (panel of 442 kinases [2]) [%],"remaining activity at 10 µM (panel of 442 kinases [2]; 10 µM, read-out: TAOK2 (% of control at 10 µM)) [%]",remaining activity at 1 µM (panel of 442 kinases [3]) [%],remaining activity at 10 µM (panel of 442 kinases [3]; [10]) [%],remaining activity at 1 µM (panel of 442 kinases [4]) [%],remaining activity at 10 µM (panel of 442 kinases [4]; [10]) [%],remaining activity at 1 µM (panel of 442 kinases [5]) [%],remaining activity at 10 µM (panel of 442 kinases [5]; [10]) [%],remaining activity at 1 µM (panel of 442 kinases [6]) [%],remaining activity at 10 µM (panel of 442 kinases [6]; [10]) [%],remaining activity at 1 µM (panel of 442 kinases [7]) [%],remaining activity at 10 µM (panel of 442 kinases [7]; [10]) [%]
Nc1cc(C(F)(F)F)c(-c2cc(N3CCOCC3)nc(N3CCOCC3)n2)cn1 [Buparlisib],95,100,100,100,87,84,92,75,100,100,87,100,90,97,90,89
"Cn1c(=O)n(-c2ccc(C(C)(C)C#N)cc2)c2c3cc(-c4cnc5ccccc5c4)ccc3ncc21 [Dactolisib, 2-methyl-2-[4-(3-methyl-2-oxo-8-quinolin-3-yl-2,3-dihydroimidazo[4,5-c]quinolin-1-yl)-phenyl] propionitrile]",70,–,75,–,98,–,76,–,–,–,100,–,89,–,37,–
COc1ncc(-c2ccc3nccc(-c4ccnnc4)c3c2)cc1NS(=O)(=O)c1ccc(F)cc1F [Omipalisib],100,–,100,–,100,–,100,–,83,–,100,–,94,–,82,–
"FC(F)c1nc2ccccc2n1-c1nc(N2CCOCC2)nc(N2CCOCC2)n1 [ZSTK474, 2-(difluoromethyl)-1-[4,6-di(4-morpholinyl)-1,3,5-triazin-2-yl]-1H-benzimidazole]",100,–,100,–,81,–,67,–,100,–,100,–,100,–,100,–
